Reference: US20060135500A1, “Novel oral pharmaceutical suspension of cefdinir crystal” (Astellas Pharma Inc., priority 2004, published 2006)

Key:
Type in all cases: physicochemical
[1] = Dispersibility comparison assay, Method 1 (visual observation of suspension in test tube); details: summary statement
Method: The dispersibility of two crystal forms of Cefdinir was compared by evaluating sedimentation rates of two crystal forms. The evaluating sedimentation rate was conducted by using two methods as follow. About 1250 mg of crystal form A or the monohydrate were dispersed in 50 mL of water (125 mg/5 mL), and the suspensions were vigorously shaken by hand. […] The pictures of suspension states were taken with time.

[2] = Dispersibility comparison assay, Method 2 (change of transmittance at 650 nm); details: 5 mg in 10 mL of water (0.5 mg/mL)
Method: The dispersibility of two crystal forms of Cefdinir was compared by evaluating sedimentation rates of two crystal forms. The evaluating sedimentation rate was conducted by using two methods as follow.
5 mg of crystal form A or the monohydrate were dispersed in 10 mL of water (sample concentration: 0.5 mg/mL), and the suspensions were vigorously shaken. Then, the dispersed suspensions were transferred in the cell for UV measurement, and changes of the transmittances at 650 nm were measured.

[3] = Solvent medium transformation (suspension in water or ethanol, PXRD of residual solid); details: water or ethanol (99.5), room temperature
Method: Form A and the monohydrate were suspended in water or ethanol (99.5) at room temperature, and the powder X-ray diffraction (PXRD) patterns of the residual solid materials were measured (Bruker AXS D8 Discover with GADDS).

dispersibility in aqueous solvent [1]	sedimentation rate in aqueous solvent [1]	SMILES	change of transmittance of suspension at 650 nm [2]	crystalline conversion in aqueous and ethanol suspensions (PXRD of residual solid) [3]
higher than that of crystal form A	lower than that of crystal form A	C=CC1=C(C(=O)O)N2C(=O)C(NC(=O)C(=NO)c3csc(N)n3)[C@H]2SC1 (single isomer, unassigned) [crystal form C, 7-[2-(2-aminothiazol-4-yl)-2-hydroxyiminoacetamido]-3-vinyl-3-cephem-4-carboxyl ic acid (syn isomer)]	–	–
–	–	C=CC1=C(C(=O)O)N2C(=O)C(NC(=O)C(=NO)c3csc(N)n3)[C@H]2SC1 (single isomer, unassigned) [form A, 7-[2-(2-aminothiazol-4-yl)-2-hydroxyiminoacetamido]-3-vinyl-3-cephem-4-carboxyl ic acid (syn isomer)]	faster increase than that of the monohydrate	no crystalline conversion to other crystal form
